This note sets out measurements from US8613931B2, “Compounds for treating beta-amyloidoses” (Affiris AG, priority 2008, dated 2013).

The test system of experiment [1] is monoclonal antibody MV-001. Kind of experiment: In vitro inhibition assay (ELISA), MV-001 binding to original epitope. More on the design: species or system C57/Bl6 mice. To be noted: OD at 10 μg peptide compared to original peptide. Here is the method: 2. In vitro inhibition assay (ELISA)
Different amounts of peptides (concentrations ranging from 10 μg to 0.08 μg; serial dilutions), derived from Phage Display were incubated with the monoclonal antibody that was used for the screening procedure. Peptides diminishing subsequent binding of the antibody to the original epitope coated on ELISA plates were considered as inhibiting in this assay.
A general note: ELISA stands for enzyme-linked immunosorbent assay.

For experiment [2], the system named is monoclonal antibody MV-001. Put plainly: In vitro binding assay (ELISA), parental antibody MV-001. More on the design: species or system C57/Bl6 mice. Conditions: peptide-BSA on ELISA plate; OD halfmax, dilution factor 1:X of parental AB MV-001. Here is the method:
1. In vitro binding assay (ELISA)
Peptides derived from Phage Display as well as variants thereof were coupled to BSA and bound to ELISA plates (1 μM; as indicated in the respective figures) and subsequently incubated with the monoclonal antibody that was used for the screening procedure to analyse binding capacity of identified peptides.

For experiment [3], the system named is full length and/or truncated and modified forms of Aβ. Kind of experiment: In vivo characterisation of mimotopes: detection of Aβ/truncated/modified forms. Conditions: MV-001 derived mimotopes; mimotope vaccination. More on the design: species or system C57/bl6 mice; key: +: All peptides listed in Table 4 mount specific immune reactions against full length and/or truncated and modified forms of Aβ or fragments thereof. Here is the method:
Inhibiting as well as non-inhibiting peptides were coupled to KLH and injected into mice (wildtype C57/Bl6 mice; subcutaneous injection into the flank) together with an appropriate adjuvant (aluminium hydroxide). Animals were vaccinated 3-6 times in biweekly intervals and sera were taken biweekly as well. Titers to injected peptides, as well as to an irrelevant peptide were determined with every serum. Furthermore, titers against the recombinant human Aβ protein, and against original peptides were determined respectively. In general sera were analysed by reaction against peptides coupled to Bovine Serum Albumin (BSA) and recombinant full length proteins which were immobilised on ELISA plates. Titers were determined using anti mouse IgG specific antibodies. For detailed results see FIGS. 6, 7 and 8 respectively.
Female C57/bl6 mice, 5-6 mice per group, were subcutaneously immunized with 30 μg peptide coupled to KLH. Control groups were administered original epitope-KLH conjugates respectively. As adjuvant alum was used (always 1 mg per mouse). […] The in vitro ELISA assay to determine the antibody titer was performed with sera of single mice after each vaccination in a two week interval (see FIGS. 6 and 7 respectively). The wells of the ELISA plate were coated with mimotope-BSA conjugate and an irrelevant peptide-BSA conjugate (negative control). The positive control was performed by reaction of the parental antibody with the respective mimotope-BSA conjugate. The detection was performed with anti-mouse IgG. Additionally, recombinant proteins were immobilised on ELISA plates and sera reacted accordingly. FIGS. 6 to 8 show representative examples for assays used to characterise mimotopes in vivo.

The target in experiment [4] is monoclonal antibody MV-001. Kind of experiment: inhibition ELISA; competitor: coated original epitope p4371. To be noted: for Inhibition Capacity: scale: code.
Experiment [5] deals with monoclonal antibody MV-001. Kind of experiment: ELISA, peptide-BSA coated, MV-001. To be noted: for Binding Capacity: scale: code.

Turning to EELRHSVC [p4746], in experiment [1], the “Inhibition Capacity” value is 1 (Weaker than original epitope (OD of 10 μg peptide below 3 times of original peptide)). In addition, in experiment [2], the “Binding Capacity” value is 3 (strong binding :>20000). For QDFRHYC [p4380], in experiment [1], the “Inhibition Capacity” value is reported as 1 (Weaker than original epitope (OD of 10 μg peptide below 3 times of original peptide)).

As for SQFRHYC [p4385], the “Detection of Aβ/truncated/modified forms” value in experiment [3] was “+”. The “Inhibition Capacity” value in experiment [1] is 1 (Weaker than original epitope (OD of 10 μg peptide below 3 times of original peptide)). Turning to THTDFRHC [p4725], the “Detection of Aβ/truncated/modified forms” value in experiment [3] was “+”. In addition, the “Inhibition Capacity” value in experiment [1] is given as 1 (Weaker than original epitope (OD of 10 μg peptide below 3 times of original peptide)). Also, the “Binding Capacity” value in experiment [2] is recorded as 3 (strong binding :>20000). For QSEFKHWC [p4738], the “Detection of Aβ/truncated/modified forms” value in experiment [3] is listed as “+”. In experiment [1], the “Inhibition Capacity” value was 1 (Weaker than original epitope (OD of 10 μg peptide below 3 times of original peptide)). Further, the “Binding Capacity” value in experiment [2] is listed as 3 (strong binding :>20000). Regarding SAFRHHC [p4387], the “Inhibition Capacity” value in experiment [1] is reported as 1 (Weaker than original epitope (OD of 10 μg peptide below 3 times of original peptide)).

As to ELFKHHLC [p4714], the “Detection of Aβ/truncated/modified forms” value in experiment [3] is recorded as “+”. Moreover, the “Binding Capacity” value in experiment [2] is given as 3 (strong binding :>20000). As to LPFRHGC [p4388], in experiment [1], the “Inhibition Capacity” value was 1 (Weaker than original epitope (OD of 10 μg peptide below 3 times of original peptide)). Take SEFKHC [p4801]: the “Inhibition Capacity” value in experiment [1] is on record as 1 (Weaker than original epitope (OD of 10 μg peptide below 3 times of original peptide)). The “Binding Capacity” value in experiment [2] is reported as 3 (strong binding :>20000). On to ADHDFRHC [p4740], for which, in experiment [3], the “Detection of Aβ/truncated/modified forms” value is “+”. For the same molecule, the “Inhibition Capacity” value in experiment [1] was 1 (Weaker than original epitope (OD of 10 μg peptide below 3 times of original peptide)). Further, the “Binding Capacity” value in experiment [2] is 3 (strong binding :>20000). The matching figures for LMFRHNC [p4386]: “+”, 1 (Weaker than original epitope (OD of 10 μg peptide below 3 times of original peptide)) and 3 (strong binding :>20000). Regarding QFKHDLC [p4391], the “Inhibition Capacity” value in experiment [1] is on record as 1 (Weaker than original epitope (OD of 10 μg peptide below 3 times of original peptide)). In the case of NWFPHPC [p4392], the “Inhibition Capacity” value in experiment [1] is given as 1 (Weaker than original epitope (OD of 10 μg peptide below 3 times of original peptide)). Further, in experiment [2], the “Binding Capacity” value is given as 1 (weak binding :<4000).

With TSFRHGC [p4382], in experiment [1], the “Inhibition Capacity” value is listed as 1 (Weaker than original epitope (OD of 10 μg peptide below 3 times of original peptide)). On the same count and under the same terms, the result for TPFRHTC [p4384] reads 1 (Weaker than original epitope (OD of 10 μg peptide below 3 times of original peptide)). On to CSEFKH [p4800], for which the “Inhibition Capacity” value in experiment [1] is reported as 2 (strong inhibition (as original epitope; OD of 10 μg peptide below 2 times of original peptide)). Besides, in experiment [2], the “Binding Capacity” value was 3 (strong binding :>20000). On to YEFRHAQC [p4748], for which the “Detection of Aβ/truncated/modified forms” value in experiment [3] was “+”. The “Binding Capacity” value in experiment [2] was 3 (strong binding :>20000). With CHEFRH [p4802], the “Inhibition Capacity” value in experiment [1] is reported as 2 (strong inhibition (as original epitope; OD of 10 μg peptide below 2 times of original peptide)). Moreover, the “Binding Capacity” value in experiment [2] is reported as 3 (strong binding :>20000). In the case of SHFRHGC [p4389], the “Inhibition Capacity” value in experiment [1] is reported as 1 (Weaker than original epitope (OD of 10 μg peptide below 3 times of original peptide)). Take DGLLFKHC [p4741]: the “Inhibition Capacity” value in experiment [1] is 1 (Weaker than original epitope (OD of 10 μg peptide below 3 times of original peptide)). Also, the “Binding Capacity” value in experiment [2] is on record as 3 (strong binding :>20000). The matching figures for HEFRHC [p4803]: 2 (strong inhibition (as original epitope; OD of 10 μg peptide below 2 times of original peptide)) and 3 (strong binding :>20000). With EEFKYSC [p4393], in experiment [1], the “Inhibition Capacity” value was 1 (Weaker than original epitope (OD of 10 μg peptide below 3 times of original peptide)).

B1: p4800 (peptide)
peptide: CSEFKH
For the molecule B1, the Inhibition Capacity in experiment [4] stood at 2. In experiment [5], this molecule had a Binding Capacity of 3.

B2: p4738 (peptide)
peptide: QSEFKHWC
For B2, in experiment [4], the Inhibition Capacity (code (weaker than original epitope)) was 1. Also, in experiment [5], the Binding Capacity was 3.

B3: p4801 (peptide)
peptide: SEFKHC
Take B3: the Inhibition Capacity (code (weaker than original epitope)) in experiment [4] was 1. The Binding Capacity in experiment [5] stood at 3.

B4: p4725 (peptide)
peptide: THTDFRHC
B4 came in with an Inhibition Capacity (code (weaker than original epitope)) in experiment [4] of 1. The Binding Capacity in experiment [5] worked out at 3.

B5: p4392 (peptide)
peptide: NWFPHPC
B5 gave an Inhibition Capacity (code (weaker than original epitope)) in experiment [4] of 1. Moreover, in experiment [5], the Binding Capacity (code (weak binding, OD halfmax 1:<4000)) was 1.

B6: p4390 (peptide)
peptide: ILFRHGC
In experiment [4], B6 registered an Inhibition Capacity (code (weaker than original epitope)) of 1. In experiment [5], this molecule yielded a Binding Capacity of 3.

B7: p4393 (peptide)
peptide: EEFKYSC
For the molecule B7, the Inhibition Capacity (code (weaker than original epitope)) in experiment [4] worked out at 1. Moreover, the Binding Capacity in experiment [5] is 2.

B8: p4740 (peptide)
peptide: ADHDFRHC
On to B8, for which, in experiment [4], the Inhibition Capacity (code (weaker than original epitope)) amounted to 1. The same molecule gave a Binding Capacity in experiment [5] of 3.

B9: p4386 (peptide)
peptide: LMFRHNC
B9 returned an Inhibition Capacity (code (weaker than original epitope)) in experiment [4] of 1. The molecule further gave a Binding Capacity in experiment [5] of 3.

B10: p4741 (peptide)
peptide: DGLLFKHC
As for B10, the Inhibition Capacity (code (weaker than original epitope)) in experiment [4] is 1. In addition, the Binding Capacity in experiment [5] came out at 3.

B11: p4746 (peptide)
peptide: EELRHSVC
Consider B11, for which the Inhibition Capacity (code (weaker than original epitope)) in experiment [4] amounted to 1. In experiment [5], this molecule had a Binding Capacity of 3.

B12: p4389 (peptide)
peptide: SHFRHGC
In experiment [4], B12 gave an Inhibition Capacity (code (weaker than original epitope)) of 1. The Binding Capacity in experiment [5] was found to be 2.

B13: p4385 (peptide)
peptide: SQFRHYC
In turn, B13 came in with an Inhibition Capacity (code (weaker than original epitope)) in experiment [4] of 1. In experiment [5], the Binding Capacity stood at 2.

B14: p4391 (peptide)
peptide: QFKHDLC
In experiment [4], B14 showed an Inhibition Capacity (code (weaker than original epitope)) of 1. Further, in experiment [5], the Binding Capacity turned out to be 2.

B15: p4387 (peptide)
peptide: SAFRHHC
Molecule B15 yielded an Inhibition Capacity (code (weaker than original epitope)) in experiment [4] of 1. In experiment [5], this molecule returned a Binding Capacity of 2.

B16: p4730 (peptide)
peptide: DEHPFRHC
Molecule B16 had an Inhibition Capacity (code (weaker than original epitope)) in experiment [4] of 1. In experiment [5], the Binding Capacity was 3.

B17: p4707 (peptide)
peptide: SPNQFRHC
Molecule B17 had an Inhibition Capacity (code (weaker than original epitope)) in experiment [4] of 1. The Binding Capacity in experiment [5] was found to be 3.

B18: p4753 (peptide)
peptide: TEFRHKAC
In the case of B18, the Inhibition Capacity in experiment [4] turned out to be 2. This molecule showed a Binding Capacity in experiment [5] of 3.

B19: p4388 (peptide)
peptide: LPFRHGC
In experiment [4], B19 came in with an Inhibition Capacity (code (weaker than original epitope)) of 1. Also, the Binding Capacity in experiment [5] stood at 2.

B20: p4715 (peptide)
peptide: TLHEFRHC
B20 came in with an Inhibition Capacity in experiment [4] of 2. In experiment [5], this molecule gave a Binding Capacity of 3.
